# Literature values, collected in US9409783B2, “Method for manufacturing mesoporous materials, materials so produced and use of mesoporous materials” (Nanologica AB, priority 2008, dated 2016).
# Conditions: L-glutamate group of folic acid; deprotonated and negatively charged above this pH
smiles,measurement,value
Nc1nc2ncc(CNc3ccc(C(=O)N[C@@H](CCC(=O)O)C(=O)O)cc3)nc2c(=O)[nH]1 [folic acid],pKa value,8.3
